Measured values reported in ChEMBL document CHEMBL1909046, “DrugMatrix in vitro pharmacology data”.

Experiments:
[1] = DRUGMATRIX: GABAA, Flunitrazepam, Central radioligand binding (ligand: [3H] Flunitrazepam); type: cell membranes, Rattus norvegicus, Wistar, Brain, Membrane; conditions: Not Active = under 50% inhibition at 10 µM
[2] = DRUGMATRIX: Purinergic P2X radioligand binding (ligand: [3H] alpha, beta-Methylene-ATP); type: cell membranes, Oryctolagus cuniculus, New Zealand albino, Urinary bladder, Membrane; conditions: Not Active = under 50% inhibition at 10 µM
[3] = target: Beta-2 adrenergic receptor (Homo sapiens, UniProt P07550); experiment: DRUGMATRIX: Adrenergic beta2 radioligand binding (ligand: [3H] CGP-12177); type: cell membranes, Membrane; conditions: cho; Not Active = under 50% inhibition at 10 µM
[4] = DRUGMATRIX: Phosphodiesterase PDE4 enzyme inhibition (substrate: [3H]cAMP + cAMP); conditions: u-937; Not Active = under 50% inhibition at 10 µM
[5] = target: T1, 3-hydroxy-3-methylglutaryl-coenzyme A reductase (Homo sapiens, UniProt P04035); design: species or system Escherichia coli;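 further: enzyme inhibition assay of HMG-CoA reductase using radiolabeled [14C]HMG-CoA as substrate; in other assays of this panel Not Active means under 50% inhibition at 10 µM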
T1 sequence (P04035 whole entry): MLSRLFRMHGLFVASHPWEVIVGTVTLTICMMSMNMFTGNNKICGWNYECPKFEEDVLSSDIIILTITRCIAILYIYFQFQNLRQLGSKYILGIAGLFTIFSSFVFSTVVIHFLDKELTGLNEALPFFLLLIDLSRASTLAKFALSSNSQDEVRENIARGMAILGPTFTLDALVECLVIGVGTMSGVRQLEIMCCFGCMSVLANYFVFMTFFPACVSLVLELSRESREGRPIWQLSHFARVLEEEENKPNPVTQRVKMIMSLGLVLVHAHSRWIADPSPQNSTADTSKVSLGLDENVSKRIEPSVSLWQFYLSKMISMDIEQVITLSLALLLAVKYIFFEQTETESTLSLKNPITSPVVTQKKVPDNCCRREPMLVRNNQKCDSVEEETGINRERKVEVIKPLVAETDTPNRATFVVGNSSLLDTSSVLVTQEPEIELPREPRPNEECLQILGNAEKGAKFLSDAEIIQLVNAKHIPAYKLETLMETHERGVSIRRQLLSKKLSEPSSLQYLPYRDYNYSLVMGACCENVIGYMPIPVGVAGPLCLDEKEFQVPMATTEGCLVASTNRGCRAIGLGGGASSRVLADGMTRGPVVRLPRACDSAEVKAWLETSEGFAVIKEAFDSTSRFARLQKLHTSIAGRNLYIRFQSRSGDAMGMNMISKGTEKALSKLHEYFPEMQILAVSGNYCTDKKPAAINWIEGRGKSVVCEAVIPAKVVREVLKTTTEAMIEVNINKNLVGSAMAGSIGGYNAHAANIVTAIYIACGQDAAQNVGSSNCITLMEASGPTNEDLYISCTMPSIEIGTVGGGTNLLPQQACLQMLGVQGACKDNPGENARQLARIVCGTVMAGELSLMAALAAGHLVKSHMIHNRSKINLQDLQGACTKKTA

[6] = target: 5-hydroxytryptamine receptor 1B (Rattus norvegicus, UniProt P28564); type: cell membranes, Wistar, Cerebral cortex, Membrane; further: in other assays of this panel Not Active means under 50% inhibition at 10 µM
[7] = target: Sodium-dependent noradrenaline transporter (Homo sapiens, UniProt P23975); experiment: DRUGMATRIX: Norepinephrine Transporter radioligand binding (ligand: [125I] RTI-55); type: cell membranes, MDCK, Membrane; conditions: mdck; Not Active = under 50% inhibition at 10 µM
Progesterone receptor = target: T2, Progesterone receptor (Bos taurus, UniProt Q690N0); experiment: DRUGMATRIX: Progesterone radioligand binding (ligand: [3H] R-5020); type: tissue-based, Uterus; conditions: Not Active = under 50% inhibition at 10 µM
T2 sequence (Q690N0 whole entry): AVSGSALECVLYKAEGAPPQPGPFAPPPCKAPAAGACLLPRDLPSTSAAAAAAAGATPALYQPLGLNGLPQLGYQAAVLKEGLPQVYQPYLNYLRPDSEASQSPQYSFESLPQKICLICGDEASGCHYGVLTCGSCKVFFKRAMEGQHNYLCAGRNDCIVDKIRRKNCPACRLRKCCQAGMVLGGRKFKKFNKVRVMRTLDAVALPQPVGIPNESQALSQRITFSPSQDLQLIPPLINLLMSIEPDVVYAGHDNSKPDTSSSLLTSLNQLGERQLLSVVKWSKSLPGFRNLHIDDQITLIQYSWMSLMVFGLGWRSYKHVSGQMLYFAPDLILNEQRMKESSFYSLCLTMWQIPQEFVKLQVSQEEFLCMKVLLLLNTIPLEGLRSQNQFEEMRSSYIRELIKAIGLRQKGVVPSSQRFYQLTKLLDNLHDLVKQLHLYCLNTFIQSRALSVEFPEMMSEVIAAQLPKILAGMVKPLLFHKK

Insulin receptor = Insulin receptor (Rattus norvegicus, UniProt P15127); type: cell membranes, Wistar, Liver, Membrane; further: in other assays of this panel Not Active means under 50% inhibition at 10 µM
[8] = target: T3, Vasoactive intestinal polypeptide receptor 1 (Homo sapiens, UniProt P32241); type: cell membranes, Membrane; conditions: ht-29; further: in other assays of this panel Not Active means under 50% inhibition at 10 µM
T3 sequence (P32241 whole entry): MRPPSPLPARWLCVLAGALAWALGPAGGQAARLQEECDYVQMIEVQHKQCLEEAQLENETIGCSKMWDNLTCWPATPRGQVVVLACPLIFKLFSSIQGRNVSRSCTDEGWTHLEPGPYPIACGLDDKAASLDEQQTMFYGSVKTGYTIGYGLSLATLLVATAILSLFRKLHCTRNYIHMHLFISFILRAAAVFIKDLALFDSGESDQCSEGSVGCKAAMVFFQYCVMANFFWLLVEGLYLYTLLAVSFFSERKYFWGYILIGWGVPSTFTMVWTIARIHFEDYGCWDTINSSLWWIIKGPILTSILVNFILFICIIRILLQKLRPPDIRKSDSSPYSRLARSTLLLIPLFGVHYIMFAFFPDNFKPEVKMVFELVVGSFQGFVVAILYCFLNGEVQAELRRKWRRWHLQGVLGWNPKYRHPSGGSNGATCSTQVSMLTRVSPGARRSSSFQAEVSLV

[9] = target: Tyrosine-protein kinase Fyn (Homo sapiens, UniProt P06241); experiment: biochemical; type: cell-based, Insect cells; conditions: insect cells
[10] = target: Mitogen-activated protein kinase 1 (Homo sapiens, UniProt P28482); experiment: DRUGMATRIX: Protein Serine/Threonine Kinase, ERK2 enzyme inhibition (substrate: Myelin Basic Protein); design: species or system Escherichia coli; conditions: Not Active = under 50% inhibition at 10 µM
Sequence of Mitogen-activated protein kinase 1 (P28482 whole entry): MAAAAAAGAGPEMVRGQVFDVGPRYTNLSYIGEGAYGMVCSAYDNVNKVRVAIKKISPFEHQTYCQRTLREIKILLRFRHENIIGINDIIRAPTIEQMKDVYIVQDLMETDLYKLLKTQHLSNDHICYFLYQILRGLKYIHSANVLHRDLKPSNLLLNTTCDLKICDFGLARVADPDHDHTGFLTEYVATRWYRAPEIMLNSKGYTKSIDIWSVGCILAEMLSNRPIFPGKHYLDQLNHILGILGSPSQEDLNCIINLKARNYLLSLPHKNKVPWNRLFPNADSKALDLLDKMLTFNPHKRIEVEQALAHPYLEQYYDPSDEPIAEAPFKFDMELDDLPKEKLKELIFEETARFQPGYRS

Sequence of Beta-2 adrenergic receptor (P07550 whole entry): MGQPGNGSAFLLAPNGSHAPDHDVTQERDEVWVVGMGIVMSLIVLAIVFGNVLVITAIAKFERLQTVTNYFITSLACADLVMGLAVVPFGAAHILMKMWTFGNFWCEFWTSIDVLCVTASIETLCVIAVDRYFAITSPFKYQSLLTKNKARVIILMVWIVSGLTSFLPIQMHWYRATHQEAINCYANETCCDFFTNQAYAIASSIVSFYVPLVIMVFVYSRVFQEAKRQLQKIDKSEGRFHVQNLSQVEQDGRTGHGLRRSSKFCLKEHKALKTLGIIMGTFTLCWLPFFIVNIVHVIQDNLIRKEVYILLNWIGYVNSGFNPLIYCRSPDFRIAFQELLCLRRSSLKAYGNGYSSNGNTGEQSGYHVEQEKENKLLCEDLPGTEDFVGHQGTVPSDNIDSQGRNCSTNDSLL
Sequence of Insulin receptor (P15127 27-759 limits assumed): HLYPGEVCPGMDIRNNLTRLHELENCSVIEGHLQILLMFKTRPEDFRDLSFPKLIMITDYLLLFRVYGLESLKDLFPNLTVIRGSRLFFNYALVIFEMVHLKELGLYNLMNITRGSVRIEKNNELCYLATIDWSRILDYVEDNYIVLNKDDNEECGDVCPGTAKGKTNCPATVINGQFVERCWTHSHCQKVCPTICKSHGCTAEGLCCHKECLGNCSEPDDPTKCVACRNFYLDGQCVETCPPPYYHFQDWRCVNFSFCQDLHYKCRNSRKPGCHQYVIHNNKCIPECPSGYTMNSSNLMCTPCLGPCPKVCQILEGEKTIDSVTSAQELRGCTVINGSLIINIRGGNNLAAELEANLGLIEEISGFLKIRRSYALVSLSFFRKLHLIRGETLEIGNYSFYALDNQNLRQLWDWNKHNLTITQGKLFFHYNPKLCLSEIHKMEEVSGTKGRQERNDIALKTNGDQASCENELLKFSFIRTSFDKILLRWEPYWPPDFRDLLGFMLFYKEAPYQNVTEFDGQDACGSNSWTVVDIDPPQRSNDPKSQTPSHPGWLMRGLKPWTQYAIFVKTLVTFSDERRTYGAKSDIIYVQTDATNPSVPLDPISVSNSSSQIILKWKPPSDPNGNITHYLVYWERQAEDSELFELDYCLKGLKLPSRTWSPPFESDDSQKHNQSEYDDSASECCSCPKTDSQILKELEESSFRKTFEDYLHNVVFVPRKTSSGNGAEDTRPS
Sequence of Insulin receptor (P15127 764-1383 limits assumed): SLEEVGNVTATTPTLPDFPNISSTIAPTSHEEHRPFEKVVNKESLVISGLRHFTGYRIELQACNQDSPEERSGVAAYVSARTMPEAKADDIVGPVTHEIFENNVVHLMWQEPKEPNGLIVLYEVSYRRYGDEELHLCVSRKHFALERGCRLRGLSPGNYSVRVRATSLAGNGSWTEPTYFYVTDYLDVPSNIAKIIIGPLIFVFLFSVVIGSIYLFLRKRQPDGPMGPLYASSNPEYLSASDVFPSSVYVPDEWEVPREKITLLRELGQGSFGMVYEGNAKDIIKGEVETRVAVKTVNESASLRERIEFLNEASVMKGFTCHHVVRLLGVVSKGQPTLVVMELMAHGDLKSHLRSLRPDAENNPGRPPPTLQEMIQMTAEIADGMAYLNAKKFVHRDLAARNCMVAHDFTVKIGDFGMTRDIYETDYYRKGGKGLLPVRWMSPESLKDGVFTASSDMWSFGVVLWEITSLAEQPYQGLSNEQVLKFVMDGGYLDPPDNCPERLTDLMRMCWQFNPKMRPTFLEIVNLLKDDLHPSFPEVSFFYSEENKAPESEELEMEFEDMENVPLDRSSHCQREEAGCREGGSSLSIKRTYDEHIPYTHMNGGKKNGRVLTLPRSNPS
Sequence of 5-hydroxytryptamine receptor 1B (P28564 whole entry): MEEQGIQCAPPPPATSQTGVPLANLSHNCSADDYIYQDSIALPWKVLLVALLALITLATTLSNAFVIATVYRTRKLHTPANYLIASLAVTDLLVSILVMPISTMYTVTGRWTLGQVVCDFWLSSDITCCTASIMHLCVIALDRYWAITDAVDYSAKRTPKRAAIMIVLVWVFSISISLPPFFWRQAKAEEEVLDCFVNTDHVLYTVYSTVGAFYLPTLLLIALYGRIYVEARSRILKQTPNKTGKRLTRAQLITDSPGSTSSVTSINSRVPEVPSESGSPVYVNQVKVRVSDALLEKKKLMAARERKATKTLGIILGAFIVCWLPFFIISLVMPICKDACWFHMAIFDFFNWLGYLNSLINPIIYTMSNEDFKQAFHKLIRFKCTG
Sequence of Tyrosine-protein kinase Fyn (P06241 whole entry): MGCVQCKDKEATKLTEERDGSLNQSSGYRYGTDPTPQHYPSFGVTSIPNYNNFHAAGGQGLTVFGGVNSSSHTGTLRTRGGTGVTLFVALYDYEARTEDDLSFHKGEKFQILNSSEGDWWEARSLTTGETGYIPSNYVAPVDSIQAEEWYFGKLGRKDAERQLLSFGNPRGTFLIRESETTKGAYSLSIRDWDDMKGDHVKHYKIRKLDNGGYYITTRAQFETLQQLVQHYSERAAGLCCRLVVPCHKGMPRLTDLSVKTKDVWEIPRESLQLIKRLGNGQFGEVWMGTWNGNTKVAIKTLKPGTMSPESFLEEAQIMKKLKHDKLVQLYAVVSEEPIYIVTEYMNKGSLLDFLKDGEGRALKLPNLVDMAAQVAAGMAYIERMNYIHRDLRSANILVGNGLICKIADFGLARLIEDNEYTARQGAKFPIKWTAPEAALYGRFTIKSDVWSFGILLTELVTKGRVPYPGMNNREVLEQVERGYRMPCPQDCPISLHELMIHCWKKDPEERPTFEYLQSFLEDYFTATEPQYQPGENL
Sequence of Sodium-dependent noradrenaline transporter (P23975 whole entry): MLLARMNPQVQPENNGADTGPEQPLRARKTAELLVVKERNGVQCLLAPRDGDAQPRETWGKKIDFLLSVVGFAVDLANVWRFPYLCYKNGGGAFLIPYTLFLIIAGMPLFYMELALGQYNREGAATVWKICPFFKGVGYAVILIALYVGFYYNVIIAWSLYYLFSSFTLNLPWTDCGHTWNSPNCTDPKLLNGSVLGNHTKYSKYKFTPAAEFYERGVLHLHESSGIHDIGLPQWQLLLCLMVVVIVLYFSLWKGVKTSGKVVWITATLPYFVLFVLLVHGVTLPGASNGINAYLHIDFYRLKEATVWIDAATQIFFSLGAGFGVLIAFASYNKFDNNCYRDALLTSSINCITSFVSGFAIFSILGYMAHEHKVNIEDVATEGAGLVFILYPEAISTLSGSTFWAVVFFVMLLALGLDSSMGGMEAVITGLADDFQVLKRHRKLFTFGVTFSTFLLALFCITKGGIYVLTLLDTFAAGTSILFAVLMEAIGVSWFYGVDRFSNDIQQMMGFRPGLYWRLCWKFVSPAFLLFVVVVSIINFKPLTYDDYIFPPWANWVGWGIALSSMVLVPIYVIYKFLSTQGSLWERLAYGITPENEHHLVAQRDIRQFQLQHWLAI

SMILES | IC50 [1] | Ki [1] | IC50 [2] | Ki [2] | IC50 [3] | IC50 [4] | Ki [4] | IC50 [5] | IC50 [6] | IC50 [7] | IC50 (Progesterone receptor) | IC50 (Insulin receptor) | IC50 [8] | IC50 [9] | IC50 [10] | IC50 (Progesterone receptor; read-out: IC50) [nM] | Ki (Progesterone receptor; read-out: Ki) [nM] | IC50 ([5]; read-out: IC50) [nM]
O=C1OC2(c3ccc(O)cc3Oc3cc(O)ccc32)c2ccccc21 [FLUORESCEIN] | Not Active | Not Active | Not Active | Not Active | Not Active | Not Active | Not Active | Not Active | Not Active | Not Active | Not Active | Not Active | Not Active | Not Active | Not Active | – | – | –
CC(=O)[C@@]1(O)CC[C@H]2[C@@H]3C[C@H](C)C4=CC(=O)C=C[C@]4(C)[C@@]3(F)[C@@H](O)C[C@@]21C [FLUOROMETHOLONE] | Not Active | Not Active | Not Active | Not Active | Not Active | Not Active | Not Active | Not Active | Not Active | Not Active | – | Not Active | Not Active | Not Active | Not Active | 815 | 106 | –
O=c1[nH]cc(F)c(=O)[nH]1 [FLUOROURACIL] | Not Active | Not Active | Not Active | Not Active | Not Active | Not Active | Not Active | Not Active | Not Active | Not Active | Not Active | Not Active | Not Active | Not Active | Not Active | – | – | –
CC(C)n1c(/C=C/C(O)CC(O)CC(=O)O)c(-c2ccc(F)cc2)c2ccccc21 (stereo unspecified) [FLUVASTATIN] | Not Active | Not Active | Not Active | Not Active | Not Active | Not Active | Not Active | – | Not Active | Not Active | Not Active | Not Active | Not Active | Not Active | Not Active | – | – | 0.353
O=C1OCCN1/N=C/c1ccc([N+](=O)[O-])o1 [FURAZOLIDONE] | Not Active | Not Active | Not Active | Not Active | Not Active | Not Active | Not Active | Not Active | Not Active | Not Active | Not Active | Not Active | Not Active | Not Active | Not Active | – | – | –
NCC1(CC(=O)O)CCCCC1 [GABAPENTIN] | Not Active | Not Active | Not Active | Not Active | Not Active | Not Active | Not Active | Not Active | Not Active | Not Active | Not Active | Not Active | Not Active | Not Active | Not Active | – | – | –
CC[N+](CC)(CC)CCOc1cccc(OCC[N+](CC)(CC)CC)c1OCC[N+](CC)(CC)CC.[I-].[I-].[I-] [GALLAMINE TRIETHIODIDE] | Not Active | Not Active | Not Active | Not Active | Not Active | Not Active | Not Active | Not Active | Not Active | Not Active | Not Active | Not Active | Not Active | Not Active | Not Active | – | – | –
COc1c(N2CCNC(C)C2)c(F)cc2c(=O)c(C(=O)O)cn(C3CC3)c12 (stereo unspecified) [GATIFLOXACIN] | Not Active | Not Active | Not Active | Not Active | Not Active | Not Active | Not Active | Not Active | Not Active | Not Active | Not Active | Not Active | Not Active | Not Active | Not Active | – | – | –
NCC(=O)O [GLYCINE] | Not Active | Not Active | Not Active | Not Active | Not Active | Not Active | Not Active | Not Active | Not Active | Not Active | Not Active | Not Active | Not Active | Not Active | Not Active | – | – | –
CC1(C)[C@@H](O[C@H]2O[C@H](C(=O)O)[C@@H](O)[C@H](O)[C@H]2O[C@@H]2O[C@H](C(=O)O)[C@@H](O)[C@H](O)[C@H]2O)CC[C@]2(C)[C@H]3C(=O)C=C4[C@@H]5C[C@@](C)(C(=O)O)CC[C@]5(C)CC[C@@]4(C)[C@]3(C)CC[C@@H]12 [GLYCYRRHIZIN] | Not Active | Not Active | Not Active | Not Active | Not Active | Not Active | Not Active | Not Active | Not Active | Not Active | Not Active | Not Active | Not Active | Not Active | Not Active | – | – | –
